In one series the test system is mice. Conditions: literature (Elovitz et al., 2006); cited from earlier work.
Another series deals with T1, human TLR2 (Homo sapiens, UniProt O60603+Q15399).
T1 construct: host or cells: HEK293
In words: IL-8 expression from HEK293/hTLR2 cells by ELISA. Conditions: 24-h incubation, varying concentrations. It is filed as cell-based. On the procedure:
(§1) HEK293 or HEK293/hTLR2 and HEK293/hTLR4/MD2/CD14, were seeded into 96-well plates at a density of 50,000 cells/well and allowed to grow overnight. The cells were then incubated with and N-palmitoyl(S)-[2,3-bis(palmitoyloxy)-(2, RS)-propyl]-Cys-Scr-Lys4 (Pam3CSK4), ultrapure Escherichia coli LPS, or fresh cultures of F. nucleatum 12230 at the indicated doses followed by a 24-h incubation. The supernatant was harvested and centrifuged and the amount of IL-8 secreted was determined by ELISA.
(§2) Immunlon flat-bottom 96-well microliter plates (Thermo Electron, Mass) were coated with goat anti-human IL-8 Ab (4 μg/ml; R&D System) in 100 μl of coating buffer (0.05 M carbonate buffer (pH 9.6)). After overnight incubation at 4° C., the plates were washed six times with washing buffer, i.e., 0.05% Tween 20 in PBS (Sigma-Aldrich), followed by an overnight incubation in blocking buffer (1% BSA in PBS) at 4° C. The plates were washed four times before an aliquot of 100 μl of diluted mammalian cell culture supernatant or human IL-8 (R&D Systems, Minn) were added to each well and incubated overnight at 4° C. The plates were washed, followed by 3-h incubation with polyclonal rabbit anti-human 11,-8 Ab (1/1000; Endogen) at room temperature. […] The light absorbance was measured at 450 nm on a Bio-Rad Model 680 microplate reader. […]

The next series deals with T2, human TLR4/MD2/CD14 (Homo sapiens, UniProt O00206+Q9Y6Y9).
T2 construct: host or cells: HEK293
In words: IL-8 expression from HEK293/hTLR4/MD2/CD14 cells by ELISA. The format is cell-based. Conditions: 24-h incubation, varying concentrations. How it is done: as §1, §2

Data on two molecules can be found in patent US9012410B2, “Method of treating intrauterine inflammation” (Case Western Reserve University, priority 2006, dated 2015).

T2 sequence (O00206 24-839): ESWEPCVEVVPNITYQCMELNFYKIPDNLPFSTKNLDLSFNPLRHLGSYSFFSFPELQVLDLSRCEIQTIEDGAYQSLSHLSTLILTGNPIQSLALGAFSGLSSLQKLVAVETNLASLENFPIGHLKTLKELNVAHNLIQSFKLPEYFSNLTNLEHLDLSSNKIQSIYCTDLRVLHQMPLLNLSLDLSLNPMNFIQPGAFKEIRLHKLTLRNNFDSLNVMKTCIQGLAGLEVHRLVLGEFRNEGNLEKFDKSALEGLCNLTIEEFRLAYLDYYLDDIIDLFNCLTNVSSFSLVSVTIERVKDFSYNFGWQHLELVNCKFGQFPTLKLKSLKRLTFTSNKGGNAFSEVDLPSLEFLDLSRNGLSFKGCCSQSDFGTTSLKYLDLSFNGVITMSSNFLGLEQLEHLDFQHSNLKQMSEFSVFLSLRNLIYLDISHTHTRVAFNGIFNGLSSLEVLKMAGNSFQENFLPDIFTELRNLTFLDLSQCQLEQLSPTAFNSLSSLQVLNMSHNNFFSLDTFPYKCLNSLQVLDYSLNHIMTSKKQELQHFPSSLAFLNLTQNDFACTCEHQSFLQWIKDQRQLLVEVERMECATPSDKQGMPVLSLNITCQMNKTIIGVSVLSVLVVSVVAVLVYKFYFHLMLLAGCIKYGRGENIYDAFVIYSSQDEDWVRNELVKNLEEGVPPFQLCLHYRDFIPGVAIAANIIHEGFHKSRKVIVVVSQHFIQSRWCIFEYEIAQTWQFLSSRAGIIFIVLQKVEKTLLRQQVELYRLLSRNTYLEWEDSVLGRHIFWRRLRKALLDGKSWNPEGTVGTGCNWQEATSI
T2 sequence (Q9Y6Y9 19-160): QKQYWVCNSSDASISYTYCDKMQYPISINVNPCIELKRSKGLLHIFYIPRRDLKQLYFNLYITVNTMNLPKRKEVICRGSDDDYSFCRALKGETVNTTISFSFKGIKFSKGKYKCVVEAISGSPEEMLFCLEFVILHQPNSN
T1 sequence (O60603 21-784): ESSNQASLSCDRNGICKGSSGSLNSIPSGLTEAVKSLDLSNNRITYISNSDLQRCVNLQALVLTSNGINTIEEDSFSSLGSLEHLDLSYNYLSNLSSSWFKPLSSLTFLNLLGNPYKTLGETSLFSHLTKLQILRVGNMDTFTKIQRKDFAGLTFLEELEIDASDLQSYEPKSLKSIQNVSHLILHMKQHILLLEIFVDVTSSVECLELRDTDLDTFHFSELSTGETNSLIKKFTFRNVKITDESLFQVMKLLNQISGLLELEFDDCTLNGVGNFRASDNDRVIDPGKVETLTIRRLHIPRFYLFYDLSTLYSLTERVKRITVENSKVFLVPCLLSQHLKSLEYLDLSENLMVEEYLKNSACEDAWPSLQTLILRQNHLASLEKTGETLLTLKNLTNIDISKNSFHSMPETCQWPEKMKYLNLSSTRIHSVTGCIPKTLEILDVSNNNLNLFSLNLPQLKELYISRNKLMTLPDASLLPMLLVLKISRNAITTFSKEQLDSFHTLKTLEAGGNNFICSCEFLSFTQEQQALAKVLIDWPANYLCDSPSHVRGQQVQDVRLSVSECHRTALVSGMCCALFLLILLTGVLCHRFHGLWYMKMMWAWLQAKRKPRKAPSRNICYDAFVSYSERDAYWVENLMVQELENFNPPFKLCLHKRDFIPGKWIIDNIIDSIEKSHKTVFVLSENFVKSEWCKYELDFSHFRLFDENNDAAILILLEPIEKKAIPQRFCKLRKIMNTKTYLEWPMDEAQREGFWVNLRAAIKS
T1 sequence (Q15399 25-786): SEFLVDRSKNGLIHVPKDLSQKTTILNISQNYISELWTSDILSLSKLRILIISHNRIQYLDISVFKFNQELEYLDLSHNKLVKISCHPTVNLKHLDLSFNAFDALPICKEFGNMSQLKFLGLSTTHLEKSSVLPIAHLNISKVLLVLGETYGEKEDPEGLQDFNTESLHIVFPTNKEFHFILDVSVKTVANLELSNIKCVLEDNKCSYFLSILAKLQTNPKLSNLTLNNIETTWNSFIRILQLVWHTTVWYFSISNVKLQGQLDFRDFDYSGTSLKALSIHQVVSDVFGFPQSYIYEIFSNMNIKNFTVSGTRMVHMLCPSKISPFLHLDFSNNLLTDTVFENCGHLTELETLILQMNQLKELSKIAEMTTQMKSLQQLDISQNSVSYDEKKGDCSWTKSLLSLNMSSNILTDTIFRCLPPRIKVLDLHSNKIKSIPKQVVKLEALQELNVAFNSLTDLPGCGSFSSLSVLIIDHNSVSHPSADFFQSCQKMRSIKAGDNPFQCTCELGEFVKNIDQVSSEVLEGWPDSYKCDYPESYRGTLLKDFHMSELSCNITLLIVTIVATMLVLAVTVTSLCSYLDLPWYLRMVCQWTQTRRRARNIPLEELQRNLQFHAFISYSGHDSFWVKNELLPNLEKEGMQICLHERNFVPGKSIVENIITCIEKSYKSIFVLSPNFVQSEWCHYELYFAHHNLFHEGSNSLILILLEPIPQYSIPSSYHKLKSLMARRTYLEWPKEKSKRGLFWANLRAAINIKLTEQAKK

For the molecule `CCCCCC(=O)O[C@]1(C(C)=O)CC[C@H]2[C@@H]3CCC4=CC(=O)CC[C@]4(C)[C@H]3CC[C@@]21C` [17-α hydroxyprogesterone caproate], the “maternal morbidity in mice” value in the series with mice is “significant maternal morbidity”.

Consider “N-palmitoyl(S)-[2,3-bis(palmitoyloxy)-(2, RS)-propyl]-Cys-Scr-Lys4 [Pam3CSK4]”, for which, at human TLR2, the “activation of TLR2 (IL-8 expression)” value is listed as “only activated their respective receptors”. For the same molecule, on human TLR4/MD2/CD14, the “activation of TLR4 (IL-8 expression)” value is listed as “not vice versa”.
